In patent publication US12613246B2, “Fluorescent probe and protein labeling method” (SHANGHAI GLORY CAPITAL MANAGEMENT LTD., priority 2018, dated 2026):

Experiments:
[1] = tested on: SNAP protein tag; experiment: Fluorescence activation after mixing probe with corresponding protein tag (SNAP); type: biochemical; conditions: probe 5 μM, protein tag 10 μM, 37° C., 1 h
Description: (§1) Mix the probe with corresponding protein tag to obtain the mixed sample, wherein the final concentration of probe in the mixed sample is 5 μM, and the final concentration of protein tags is 10 μM; hatch the mixed sample at 37° C. for 1 h, and detect its fluorescence intensity change by using the fluorescence spectrophotometer.
(§2) According to the free probe quantum yield shown in Table 1, the fluorescence of the probes of and reference probes are extremely low before the reaction with the protein tag, and is close to the background fluorescence level of PBS buffer solution. […] However, according to the quantum yield of the binding protein tag, the fluorescence signal enhancement can be detected in the corresponding excitation emission channel after the probe reacts with the protein tag with hundreds to one thousand fold fluorescence activation times and very high brightness; the reference probes also can activate fluorescence, but the fluorescence quantum yield and brightness after activation are quite low.

[2] = Fluorescence emission spectra of probes in glycerol and methanol (viscosity response); type: physicochemical; conditions: maximum excitation wavelength of each probe; for Fluorescence ratio in glycerol methanol: 1×10^−5 M; for Emission wavelength: medium not given
Source text: Respectively dissolve Probe 1-32 and Reference Probes BG-CCVJ and BG-Gly-CCVJ in dimethyl sulfoxide so as to prepare a mother liquid with a concentration of 1×10^−2M; add the mother liquid to glycerol and methanol respectively and mix them well to prepare a solution with a concentration of 1×10^−5 M. Based on different probes, the fluorescence emission spectrum of each probe are detected under the same conditions with maximum excitation wavelength of each probe.
The probes are sensitive to the change of viscosity and have viscosity response.

[3] = Fluorescence of free probe before reaction with the protein tag; type: physicochemical
Description: as §1, §2

[4] = tested on: CLIP protein tag; experiment: Fluorescence activation after mixing probe with corresponding protein tag (CLIP); type: biochemical; conditions: probe 5 μM, protein tag 10 μM, 37° C., 1 h
Description: as §1, §2

| Quantum yield of binding protein tags [1] | Fluorescence ratio in glycerol methanol [2] | Emission wavelength [2] | Quantum yield of free probe [3] | Quantum yield of binding protein tags [4] | SMILES | Fluorescence activation multiple [1] | Fluorescence activation multiple [4] |
| --- | --- | --- | --- | --- | --- | --- | --- |
| 0.41 | 562 | 550 nm | <0.001 |  | CN(CCOC(=O)NCc1ccc(COc2nc(N)nc3[nH]cnc23)cc1)c1ccc2nc(/C=C(\C#N)C(=O)OC(C)(C)C)ccc2c1 [Probe 1] | 490 |  |
| 0.44 | 790 | 630 nm | <0.001 |  | CN(CCOC(=O)NCc1ccc(COc2nc(N)nc3[nH]cnc23)cc1)c1ccc2nc(/C=C(\C#N)c3nc4ccccc4o3)ccc2c1 [Probe 2] | 556 |  |
|  | 621 | 550 nm | <0.001 | 0.41 | CN(CCOC(=O)NCc1ccc(COc2nccc(N)n2)cc1)c1ccc2nc(/C=C(\C#N)C(=O)OC(C)(C)C)ccc2c1 [Probe 3] |  | 473 |
| 0.39 | 601 | 550 nm | <0.001 |  | CN(CCOC(=O)NCc1ccc(COc2cc(Cl)nc(N)n2)cc1)c1ccc2nc(/C=C(\C#N)C(=O)OC(C)(C)C)ccc2c1 [Probe 4] | 567 |  |
| 0.44 | 821 | 615 nm | <0.001 |  | CN(CCOC(=O)NCc1ccc(COc2nc(N)nc3[nH]cnc23)cc1)c1ccc(-c2ccc(/C=C(\C#N)C(=O)OC(C)(C)C)o2)cc1 [Probe 5] | 669 |  |
| 0.41 | 851 | 627 nm | <0.001 |  | COCCNC(=O)/C(C#N)=C/c1ccc(-c2ccc(N(C)CCOC(=O)NCc3ccc(COc4nc(N)nc5[nH]cnc45)cc3)cc2)o1 [Probe 6] | 745 |  |
| 0.45 | 814 | 666 nm | <0.001 |  | CN(CCOC(=O)NCc1ccc(COc2nc(N)nc3[nH]cnc23)cc1)c1ccc(-c2ccc(/C=C(\C#N)c3nc4ccccc4o3)o2)cc1 [Probe 7] | 701 |  |
|  | 574 | 630 nm | <0.001 | 0.40 | CN(CCOC(=O)NCc1ccc(COc2nccc(N)n2)cc1)c1ccc(-c2ccc(/C=C(\C#N)C(=O)OC(C)(C)C)o2)cc1 [Probe 8] |  | 555 |
| 0.37 | 311 | 650 nm | 0.0012 |  | CN(CCOC(=O)NCc1ccc(COc2nc(N)nc3[nH]cnc23)cc1)c1ccc(-c2ccc(/C=C(\C#N)C(=O)OC(C)(C)C)o2)o1 [Probe 13] | 359 |  |
| 0.35 | 402 | 725 nm | 0.001 |  | CN(CCOC(=O)NCc1ccc(COc2nc(N)nc3[nH]cnc23)cc1)c1ccc(-c2ccc(/C=C(\C#N)c3nc4ccccc4s3)o2)o1 [Probe 14] | 498 |  |
|  | 301 | 651 nm | 0.0012 | 0.35 | CN(CCOC(=O)NCc1ccc(COc2nccc(N)n2)cc1)c1ccc(-c2ccc(/C=C(\C#N)C(=O)OC(C)(C)C)o2)o1 [Probe 15] |  | 265 |
| 0.51 | 996 | 640 nm | <0.001 |  | COCCNC(=O)/C(C#N)=C/c1cc2c(s1)-c1ccc(N(C)CCOC(=O)NCc3ccc(COc4nc(N)nc5[nH]cnc45)cc3)cc1C2(C)C [Probe 19] | 670 |  |
| 0.44 | 1123 | 665 nm | <0.001 |  | COCCNC(=S)/C(C#N)=C/c1cc2c(s1)-c1ccc(N(C)CCOC(=O)NCc3ccc(COc4nc(N)nc5[nH]cnc45)cc3)cc1C2(C)C [Probe 20] | 910 |  |
| 0.39 | 542 | 680 nm | <0.001 |  | COC(=S)/C(C#N)=C/c1cc2c(s1)-c1ccc(N(C)CCOC(=O)NCc3ccc(COc4nc(N)nc5[nH]cnc45)cc3)cc1C2(C)C [Probe 21] | 451 |  |
| 0.33 | 512 | 643 nm | <0.001 |  | CN(CCOC(=O)NCc1ccc(COc2nc(N)nc3[nH]cnc23)cc1)c1ccc2c(c1)C(C)(C)c1cc(/C=C(\C#N)C(=O)O)sc1-2 [Probe 23] | 433 |  |
|  | 1125 | 645 nm | <0.001 | 0.55 | CN(CCOC(=O)NCc1ccc(COc2nccc(N)n2)cc1)c1ccc2c(c1)C(C)(C)c1cc(/C=C(\C#N)C(=O)OC(C)(C)C)sc1-2 [Probe 24] |  | 535 |
|  | 782 | 670 nm | <0.001 | 0.41 | CN(CCOC(=O)NCc1ccc(COc2nccc(N)n2)cc1)c1ccc2c(c1)C(C)(C)c1cc(/C=C(\C#N)c3nc4ccccc4o3)sc1-2 [Probe 25] |  | 421 |
|  | 522 | 675 nm | <0.001 | 0.46 | CN(CCOC(=O)NCc1ccc(COc2nccc(N)n2)cc1)c1ccc2c(c1)C(C)(C)c1cc(/C=C(\C#N)c3nc4ccccc4s3)sc1-2 [Probe 26] |  | 478 |
| 0.41 | 493 | 645 nm | <0.001 |  | CN(CCOC(=O)NCc1ccc(COc2cc(Cl)nc(N)n2)cc1)c1ccc2c(c1)C(C)(C)c1cc(/C=C(\C#N)C(=O)OC(C)(C)C)sc1-2 [Probe 27] | 557 |  |
| 0.67 | 1274 | 651 nm | <0.001 |  | CN(CCOC(=O)NCc1ccc(COc2nc(N)nc3[nH]cnc23)cc1)c1ccc2c(c1)C(C)(C)c1cc(/C=C(\C#N)C(=O)OC(C)(C)C)oc1-2 [Probe 28] | 857 |  |
|  | 1024 | 652 nm | <0.001 | 0.57 | CN(CCOC(=O)NCc1ccc(COc2nccc(N)n2)cc1)c1ccc2c(c1)C(C)(C)c1cc(/C=C(\C#N)C(=O)OC(C)(C)C)oc1-2 [Probe 29] |  | 933 |
| 0.41 | 412 | 675 nm | <0.001 |  | CN(CCOC(=O)NCc1ccc(COc2nc(N)nc3[nH]cnc23)cc1)c1ccc2c(c1)C(C)(C)C(/C=C(\C#N)C(=O)OC(C)(C)C)=N2 [Probe 30] | 503 |  |
| 0.47 | 573 | 703 nm | <0.001 |  | CN(CCOC(=O)NCc1ccc(COc2nc(N)nc3[nH]cnc23)cc1)c1ccc2c(c1)C(C)(C)C(/C=C(\C#N)c1nc3ccccc3s1)=N2 [Probe 31] | 445 |  |
| 0.41 | 553 | 675 nm | <0.001 |  | CN(CCOC(=O)NCc1ccc(COc2nccc(N)n2)cc1)c1ccc2c(c1)C(C)(C)C(/C=C(\C#N)C(=O)OC(C)(C)C)=N2 [Probe 32] | 421 |  |
| 0.02 | 260 | 501 nm | <0.001 |  | N#C/C(=C\c1cc2c3c(c1)CCCN3CCC2)C(=O)NCc1ccc(COc2nc(N)nc3[nH]cnc23)cc1 [Reference probe BG-CCVJ, reference compound] | 170 |  |
|  | 260 |  | <0.001 |  | N#C/C(=C\c1cc2c3c(c1)CCCN3CCC2)C(=O)NCC(=O)NCc1ccc(COc2nc(N)nc3[nH]cnc23)cc1 [Reference probe BG-Gly-CCVJ, reference compound] | 60 |  |
